Data on three molecules can be found in PMC10149936, “Cofilin activation in pancreatic acinar cells plays a pivotal convergent role for mediating CCK-stimulated enzyme secretion and growth” (Frontiers in Physiology, 2023).

pIC50: −log10 of the molar value.

In assay [1] the test system is cofilin (pS3) in rat pancreatic acini. Kind of assay: cofilin activation (phospho-pS3 cofilin Western blot) in isolated rat pancreatic acini. It is filed as cell-based. How it is done:
Pancreatic acini preparations were obtained by collagenase digestion as previously described ([Bissonnette et al., 1984]; [Sato et al., 1989]; [Ramos-Alvarez and Jensen, 2018]). After collagenase digestion, dispersed acini were preincubated with different inhibitors in standard incubation solution ([Ramos-Alvarez and Jensen, 2018]; [Ramos-Ãlvarez et al., 2020]) for 3 h at 37°C under conditions specific for PKD/PKC, Src, PI3K, MAPKs, SSH1, LIMK, cofilin, other phosphatases and PAK4 inhibitors, as described previously ([Ramos-Alvarez and Jensen, 2018]; [Ramos-Ãlvarez et al., 2020]). Isolated acini and CCK1-R/Panc-1 cells (M&M 2.2.1) were also preincubated with two SSH1 inhibitors, D3 (25 μM, 1 h) ([Li et al., 2015]) or SE (50 μM, 3 h for acini; 24 h for CCK1-R/Panc-1 cells) ([Lee et al., 2017]). After preincubation, 1 mL aliquots of dispersed acini were incubated at 37°C for 3–15 min with CCK-8 (0.3 nM or 100 nM), for 5–15 min with TPA (1 µM) or without stimulants, used as control. Cells were lysed in lysis buffer (50 mM Tris/HCl pH 7.5, 150 mM NaCl, 1% Triton X-100, 1% deoxycholate, 0.1% sodium azide, 1 mM EGTA, 0.4 mM EDTA, 0.2 mM sodium orthovanadate, 1 mM PMSF, and one protease inhibitor tablet per 10 mL). After sonication, lysates were centrifuged at 10,000×g for 15 min at 4°C and protein concentration was measured using the Bio-Rad protein assay reagent. Finally, cells were processed as below for Western blotting.
Both concentrations of CCK-8 were used because CCK-8 is reported to have different responses with physiological and supraphysiological concentrations contributing to physiological and pathophysiological processes such as pancreatitis ([Dufresne et al., 2006]).
Western blotting and immunoprecipitation were performed as described previously ([Ramos-Alvarez and Jensen, 2018]). Whole cell lysates were subjected to SDS-PAGE using 4%–20% Tris–Glycine gels. […] Finally, membranes were then washed again twice in blocking buffer for 4 min, twice in washing buffer for 4 min, incubated for 4 min with chemiluminescence detection reagents. The intensity of the protein bands was measured using GeneTools software from Syngene, which were assessed in the linear detection range.
All experiments were performed at least 3 times. Data are presented as mean ± SEM and were analyzed with the non-parametric Kruskal–Wallis analysis (data was not normally distributed) and the Dunn’s multiple comparison test using the GraphPad Prism 8.0 software. P values < 0.05 were considered significant.
(A) Isolated pancreatic acini were incubated in the absence or presence of CCK-8 (100 nM), carbachol (1 μM), bombesin (1 nM), secretin (1 nM) or VIP (1 nM) for 1 min and then lysed. (B) Isolated pancreatic acini were incubated in the absence or presence of CCK-8 and CCK-JMV (at the indicate concentrations) for 3 min and then lysed. Western blots were analyzed using anti-pS3 cofilin, which mediates the activation state of cofilin. Bands were visualized using chemiluminescence and quantified by densitometry.
(A western blot detects proteins with antibodies after separation by electrophoresis.)

For assay [2], the system named is cofilin in human T lymphocytes. As to conditions: stimulated by CD2 or CD28; ref Ambach et al., 2000; cited from earlier work. The source says:
(§1) Because our results differ from the general finding that the two major signaling cascades in other tissues mediating cofilin activity, which involve alterations in LIMK and/or SSH1 activity ([Wang et al., 2005]; [Spratley et al., 2011]; [Mizuno, 2013]; [Ohashi, 2015]; [Xu et al., 2021]), were not important in mediating CCK’s activation of cofilin in pancreatic acini, we explored the possible involvement of other phosphatases that have been reported to participate in cofilin activation in other tissues with other stimulants. The activation of the serine/threonine phosphatases type 1 (PP1) or ty ...

Assay [3] deals with JNK1-3. As to conditions: reversible ATP-competitive; reference not given; cited from earlier work. The source says:
(Figure 10) In various tissues with difference stimuli, cofilin dephosphorylation and activation, has been reported to be mediated by PI3K, ROCK and various MAPKs (p38, p44/42, JNK) ([Won et al., 2008]; [Duan et al., 2014]), therefore we assessed their possible role in CCK-8-stimulated cofilin activation. Previous studies have shown that, in pancreatic acini and/or other tissues, CCK-8 activates each of these signaling cascades ([Berna et al., 2009]; [Camello-Almaraz et al., 2009]; [Ramos-Alvarez and Jensen, 2018]; [Ramos-Ãlvarez et al., 2020]). In order to address the role of these signal cas ...

Assay [4] relates to PP2A. The settings on record: cited from earlier work.
Source text: as §1

In assay [5] the test system is PP2A / PP1. The settings on record: low concentrations; ref Ishihara et al., 1989; Takai et al., 1992; Lutz et al., 1993; Schmidt et al., 1994; Walsh et al., 1997; cited from earlier work. The source says: (Figures 5, 6) In human T lymphocytes, neurons, the 293 T cell line (human embryonic kidney 293 cells) and HeLa cells, it is reported that activation of cofilin can occur due its dephosphorylation through the co-stimulation activation of accessory receptors (e.g.,.CD2, CD3 or CD28) by CD3xCD28 mAb, with Endothelin-1 (ET-1), and the Ca^2+ ionophore A23187, which is mediated by activation of serine protein phosphatases ([Ambach et al., 2000]; [Wang et al., 2005]; [Tam et al., 2019]). Therefore, to explores the possible role of the protein phosphatases PP1, PP2A, PP2B in CCK-8-induced activation ...

For assay [6], the system named is pancreas. Set-up: method as in Waschulewski et al., 1996. As to conditions: ref Waschulewski et al., 1996; cited from earlier work.
Assay [7] concerns parotid acinar cells. The arrangement: method as in Tamaki and Yamashina, 2002. The settings on record: ref Tamaki and Yamashina, 2002; cited from earlier work.

On to `C=CC[C@@H]1/C=C(\C)C[C@H](C)C[C@H](OC)[C@H]2O[C@@](O)(C(=O)C(=O)N3CCCC[C@H]3C(=O)O[C@H](/C(C)=C/[C@@H]3CC[C@@H](O)[C@H](OC)C3)[C@H](C)[C@@H](O)CC1=O)[C@H](C)C[C@@H]2OC` [FK-506], for which, in assay [1] (FK-506 10 µM 3 h, CCK-8 0.3 and 100 nM 3 min, TPA 1 µM 5 min), the “effect on CCK-8 or TPA's activation of cofilin” value is listed as “had no effect”. Also, the “effect on dephosphorylation of cofilin in human T lymphocytes” value in assay [2] is listed as “did not affect the dephosphorylation of cofilin in human T lymphocytes”.
`Oc1c2ccccc2c2c3c(cccc13)N=N2` [SP600125]: the “reversal of cofilin dephosphorylation by CCK-8” value in assay [1] (Wortmannin 1 µM, LY294002 100 µM, SB202190 10 µM, U0126 10 µM, Y-27632 10 µM 1 h, SP600125 20 µM 3 h, CCK-8 0.3 and 100 nM 3 min) is reported as “completely reversed”. Besides, the pIC50 in assay [3] is 6.96.
For the molecule `C=C1[C@@H](O)[C@@H]2O[C@]3(CC[C@H](/C=C/[C@@H](C)[C@@H]4CC(C)=C[C@@]5(O[C@H](C[C@@](C)(O)C(=O)O)CC[C@H]5O)O4)O3)CC[C@H]2O[C@@H]1[C@@H](O)C[C@H](C)[C@H]1O[C@@]2(CCCCO2)CC[C@H]1C` [okadaic acid], the “decrease of basal level of cofilin phosphorylation” value in assay [1] (calyculin A 1 nM or okadaic acid 10 nM, 3 h, no stimulant) is on record as 12%. In addition, the “inhibition of cofilin activation stimulated by CCK-8” value in assay [1] (calyculin A 1 nM or okadaic acid 10 nM, 3 h, CCK-8 0.3 and 100 nM 3 min) is on record as “completely inhibited”. In assay [4] (nanomolar concentrations, pancreatic acini, ref Wagner et al., 1992), the “phosphatase selectivity in pancreatic acini” value is “only inhibit PP2A”. The pIC50 in assay [4] (pancreatic acinar cells, ref Lutz et al., 1993, read-out: IC50, CCK1R-stimulated phosphatase activity (PP2A) in cytosol of pancreatic acinar cells) was 9.70. For the same molecule, the “greater inhibitory effect on PP2A over PP1” value in assay [5] was 50-250 fold. Besides, the “effect on stimulated enzyme secretion in pancreas” value in assay [6] is “completely blocked stimulated enzyme secretion in pancreas”. In addition, the “effect on amylase release in parotid acinar cells” value in assay [7] is “disrupted amylase release in parotid acinar cells”.

One may read the pIC50 as the negative decadic logarithm of the IC50, by convention in mol/L.
